The subject of this test is B16-F10. Put plainly: Transplantable B16-F10 melanoma mouse model: tumor growth and survival under CD39 inhibitor and checkpoint antibodies.

Description: A schematic summary of the therapy regimen used in the transplantable B16-F10 mouse model (described in Methods). Mice were divided into four groups (n=10 per group): untreated (vehicle control), anti-TIM3, CD39 inhibitor (CD39i, using POM-1 small molecule) and anti-TIM3 in combination with CD39i. FIG. 26D. Box plots showing the kinetics of tumor growth between the different groups of mice on days +4, +7, +11, +14 and +18 post tumor transplantation. Data in box plots are means±SEM. P-value was determined by unpaired-student's t-test. FIG. 26E. Mean tumor volumes for all 4 groups are shown, means±SEM. FIG. 26F. Survival at day 30 of B16-F10 tumor-bearing mice for all 4 groups. Log-rank P-value is shown. Data shown for C-F represents one out of two independent experiments, n=10 for each group per experiment. ns—not significant.
To that end Applicants used the aggressive B16-F10 melanoma mouse model. Mice were treated with the small molecule POM-1 to block CD39 activity^38, alone or in combination with anti-TIM3 blocking antibodies (FIG. 26C).
Mice and tumor transplant. […] B16-F10 cells (0.5×10^6) were intradermally injected into the right flank using a 30 g needle and tumors were measured every 4 days in two dimensions using a digital caliper. Tumor volume (mm^3) was calculated using the following formula V=(L*W^2)/2 (V=volume, L=tumor length, tumor width). […]

For the compound `O.[Na+].[Na+].[Na+].[Na+].[Na+].[Na+].[O]=[W](=[O])([O-])[O-].[O]=[W](=[O])([O-])[O-].[O]=[W](=[O])([O-])[O-].[O]=[W](=[O])=[O].[O]=[W](=[O])=[O].[O]=[W](=[O])=[O].[O]=[W](=[O])=[O].[O]=[W](=[O])=[O].[O]=[W](=[O])=[O].[O]=[W](=[O])=[O].[O]=[W](=[O])=[O].[O]=[W](=[O])=[O]` [POM-1, polyoxometalate-1], where the note is “B16-F10 intradermal tumors, CD39 inhibitor and/or anti-TIM3, versus untreated”, the “tumor growth / tumor size” value was “transiently reduced tumor growth until day 14”. In addition, the “survival on day 30” value (B16-F10 tumor-bearing mice, n=10 per group, POM-1 5 mg/kg/day i.p., anti-TIM3 100 μg/dose i.p. every 3 days, from day 4) is 10%.

Values taken from patent publication US12226479B2, “Methods and compositions of use of CD8+ tumor infiltrating lymphocyte subtypes and gene signatures thereof” (THE GENERAL HOSPITAL CORPORATION, priority 2017, dated 2025).
